ChEMBL document CHEMBL4480424, “Bialternacins A-F, Aromatic Polyketide Dimers from an Endophytic Alternaria sp” (J Nat Prod, 2019)
Active and inactive are the calls of the source. The calls are words filed in the database; no cut-off is given here.

biological target: Acetylcholinesterase (Homo sapiens, UniProt P22303); assay: Inhibition of AChE (unknown origin) using acetylthiocholine iodide as substrate after 5 mins by spectrophotometric analysis
Sequence (P22303 whole entry): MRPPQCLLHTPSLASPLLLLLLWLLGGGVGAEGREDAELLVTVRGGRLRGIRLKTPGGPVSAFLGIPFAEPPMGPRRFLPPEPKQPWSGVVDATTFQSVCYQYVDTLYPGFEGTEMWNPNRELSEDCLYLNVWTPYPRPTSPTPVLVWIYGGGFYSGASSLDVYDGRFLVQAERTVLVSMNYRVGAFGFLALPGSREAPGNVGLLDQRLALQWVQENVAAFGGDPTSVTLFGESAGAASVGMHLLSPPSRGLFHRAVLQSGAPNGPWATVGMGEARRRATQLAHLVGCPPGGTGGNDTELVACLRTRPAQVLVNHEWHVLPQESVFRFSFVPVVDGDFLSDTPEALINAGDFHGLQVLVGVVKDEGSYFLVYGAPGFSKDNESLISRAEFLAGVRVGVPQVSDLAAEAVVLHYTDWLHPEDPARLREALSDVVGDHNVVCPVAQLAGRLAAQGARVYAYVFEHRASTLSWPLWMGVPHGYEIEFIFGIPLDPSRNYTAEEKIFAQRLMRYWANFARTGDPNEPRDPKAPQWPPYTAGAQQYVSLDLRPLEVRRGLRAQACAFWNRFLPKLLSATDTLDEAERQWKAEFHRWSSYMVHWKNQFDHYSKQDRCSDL

How did the inhibition turn out when `COc1cc(O)c2c(c1)C1=C(C3=C4c5cc(OC)cc(O)c5C(=O)OC4(C)C=C(O)C3=O)C(=O)C(O)=CC1(C)OC2=O` (stereo in doubt; (-)-6) was run?
Its inhibition is “inactive”.

`COc1cc(O)c2c(c1)C1=C(C3=C4c5cc(OC)cc(O)c5C(=O)OC4(C)C=C(O)C3=O)C(=O)C(O)=CC1(C)OC2=O` (stereo in doubt; (+)-6) was tested. Which inhibition did it give?
The inhibition was “inactive”.

With `COc1cc(O)c2c(c1)C1=CC3=Nc4cc(C)c(-c5cc(OC)cc(O)c5C(=O)O)cc4O[C@@]3(O)C[C@@]1(C)OC2=O` as the compound, how does the inhibition read?
The inhibition was “inactive”.

For `COc1cc(O)c(C(C)=O)c(-c2c(C)cc(O)c3oc4c(O)cc(C)c(-c5cc(OC)cc(O)c5C(=O)O)c4c23)c1`, which IC50 is on record?
Its IC50 is 68.3 µM.

How did the inhibition turn out when `COc1cc(O)c2c(c1)C1=CC3=Nc4cc(C)c(-c5cc(OC)cc(O)c5C(=O)O)cc4O[C@]3(O)C[C@]1(C)OC2=O` was run?
The inhibition was “inactive”.

`COc1cc(O)c(C(=O)O)c(-c2c(C)cc(O)c(O)c2-c2c(O)c(O)cc(C)c2-c2cc(OC)cc(O)c2C(=O)O)c1` was tested. Which inhibition did it give?
Its inhibition is “inactive”.

How did the inhibition turn out when `COc1cc(O)c(C(=O)O)c(-c2c(C)cc(O)c3oc4c(c23)C2(OC(=O)c3c(O)cc(OC)cc32)C(C)=CC4=O)c1` (stereo in doubt; (-)-2) was run?
The inhibition was “inactive”.

`COc1cc(O)c(C(=O)O)c(-c2c(C)cc(O)c3oc4c(c23)C2(OC(=O)c3c(O)cc(OC)cc32)C(C)=CC4=O)c1` (stereo in doubt; (+)-2) was tested. Which inhibition did it give?
The inhibition was “inactive”.

With `COc1cc(O)c2c(c1)C1=C(c3c(O)c(O)cc(C)c3-c3cc(OC)cc(O)c3C(=O)O)C(=O)C(O)=CC1(C)OC2=O` (stereo not given) as the compound, how does the IC50 read?
The IC50 was 15.5 µM.

What about the inhibition of the same compound?
The inhibition was “inactive”.
